The test deals with T1, Nuclear receptor subfamily 1 group I member 3 (Homo sapiens, UniProt Q14994).
T1 sequence (Q14994 whole entry): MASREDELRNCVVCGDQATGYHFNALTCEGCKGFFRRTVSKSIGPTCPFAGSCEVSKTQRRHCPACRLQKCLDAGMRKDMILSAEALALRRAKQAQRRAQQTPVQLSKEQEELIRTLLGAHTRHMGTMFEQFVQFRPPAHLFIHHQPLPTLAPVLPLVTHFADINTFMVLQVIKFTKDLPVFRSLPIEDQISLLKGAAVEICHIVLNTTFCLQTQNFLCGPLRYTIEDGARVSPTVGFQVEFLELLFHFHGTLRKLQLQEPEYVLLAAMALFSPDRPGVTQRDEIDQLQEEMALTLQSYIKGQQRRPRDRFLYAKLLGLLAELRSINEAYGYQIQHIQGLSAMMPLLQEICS
Kind of test: Inverse agonist activity at GST tagged-human CAR-LBD assessed as reduction in fluorescein-PGC1 alpha coactivator recruitment after 1 hr by TR-FRET assay. For orientation: In TR-FRET formats the signal depends on donor and acceptor labels being close together.

Structures are written as SMILES. A value given as a limit tells only on which side of the number the result lay.

For orientation: IC50 means the concentration that gives 50% inhibition. Consider `CCOC(=O)Nc1ccc2c(c1)N(C(=O)CN)c1ccccc1CC2`, for which the 50% inhibitory concentration (IC50) is over 70000 nM. For `CC(C)OC(=O)Nc1ccc2c(c1)N(C(=O)COC1CCCC1)c1ccccc1CC2` the value was 19.5 nM; for `CC(C)OCC(=O)N1c2ccccc2CCc2ccc(NC(=O)OC(C)(C)C)cc21`, 116 nM; for `O=C(Nc1ccc2c(c1)N(C(=O)Cn1cccc1)c1ccccc1CC2)OC1CCCCC1`, 11.7 nM. In the case of `CCCN(CCC)CC(=O)N1c2ccccc2CCc2ccc(NC(=O)OC(C)C)cc21`, the half-inhibitory concentration (IC50) was 116 nM. For `CCN(CC)CC(=O)N1c2ccccc2CCc2ccc(NC(=O)OC(C)(C)C)cc21` the value was 1030 nM; for `CC(C)(C)OC(=O)Nc1ccc2c(c1)N(C(=O)Cn1cccc1)c1ccccc1CC2`, 31.9 nM. For `CCN(CC)CC(=O)N1c2ccccc2CCc2ccc(NC(=O)OC(C)C)cc21` the value was 680 nM. Regarding `CC(C)(C)OC(=O)Nc1ccc2c(c1)N(C(=O)CN1CCCCC1)c1ccccc1CC2`, the half-inhibitory concentration (IC50) stood at 216 nM.

For the origin of these results see ChEMBL document CHEMBL3763070, “Development of CINPA1 analogs as novel and potent inverse agonists of constitutive androstane receptor” (Eur J Med Chem, 2016).
